Measured values from patent publication US4927832A, “Novel tetrahydropyridines having analgesic activity” (Roussel Uclaf, priority 1987, dated 1990).
Counter-ions that a name gives are not always drawn.

Columns and labels:
male mice = assay: Analgesic activity (acetic acid stretching and twisting test); assay type: in vivo; details: administered orally 30 minutes before intraperitoneal acetic acid
Protocol: This test was based on the observation of Koster et al (Fed. Proc. 1959, 1B, 412) that the intraperitioneal injection of acetic acid causes repeated movements of stretching and twisting in rodents which can be considered as manifestations of a diffuse abdominal pain because they ae attenuated by analgesics. The acetic acid was injected at a […] male mice of average weight of […]. The product under study was administered orally 30 minutes before the injection of the acetic acid to groups of 10 animals, each trial including a control group which receives the vehicle. Five minutes after the injection of the irritant, the stretchings and twistings were counted for each animal for a period of 15 minutes. The analgesic effect of each dose of product studied was expressed as a percentage of protection in relation to the average number of movements observed in the controls receiving acetic acid alone. The DA50 or dose necessary to reduce the number of stretchings by 50% was calculated according to the method of least squares. The DA50 values obtained with the products of Example 1 and 3 were respectively 2.5 and 5 mg/kg.

K opiated receptor = molecular target: T1, K opiated receptor (Cavia porcellus, UniProt P41144); assay: Liaison to the K opiated receptor in vitro (displacement of 3H ethylketocyclazocine); assay type: binding, guinea pigs; details: 50% inhibiting concentration (IC50), membranes from guinea pig brains, 3H ethylketocyclazocine 1 nM, 25° C. for 40 minutes
T1 construct: prepared from the brains of guinea pigs were used; from tissue; host or cells: guinea pig brain membranes
Protocol: (1) Liaison to the K opiated receptor in vitro:
Membrane residues preserved at -30° C. (possibly up to about 30 days) and prepared from the brains of guinea pigs were used.' The residues were suspended in Tris pH 7.7 buffer and fractions of 2 ml were distributed in hemolysis tubes, 9^3 H ethylketocyclazocine 1 nM and the product under study were added. The product was first tested at 5×10^-6 M (in triplicate). When the product tested displaced the radioactivity bound specifically to the receptor by more than 50%, it was again tested according to a range of 7 doses to determine the dose which inhibits the radioactivity bound specifically to the receptor by 50%. In this way, the 50% inhibiting concentration was determined.
The non-specific liaison was determined by adding the product known as U-50488 H (Lahti et al. 1982, Life Sci. 31, 2257) at 10^-5 M in triplicate. After incubating at 25° C. for 40 minutes, returning to the water-bath at 0° C. for 5 minutes, filtering under vacuum, and rinsing with Tris pH 7.7 buffer, the radioactivity was counted in the presence of scintillating Trition. […]

[1] = tested on: Male rats of Sprague Dawley strain; assay: Measurement of diuretic activity; assay type: in vivo; details: 5 mg/kg orally, urinary volume over period t0h-t5h
Protocol: (3) Measurement of diuretic activity Male rats of Sprague Dawley strain weighing 180-200 g were deprived of food for 17 hours before the test, while receiving water ad libitum. Groups of 8 animals were set up for each dose tested and the rats received the product under test or its vehicle orally. The urine volume was measured every hour for the 5 hours following the administration of the product. After this period, the urines were collected and the activity of the product was expressed as a percentage of variation calculated on the urinary volume corresponding to the period tOH --[…].

rat = assay: Anti-arrhythmic activity in the rat (aconitine perfusion); assay type: in vivo; details: 5 minutes before aconitine perfusion, compared with controls
Protocol: (2) Anti-arrhythmic activity in the rat
Male rats weighing 300-350 g, anesthesized intra-peritoneally with 1.20 g/kg of urethane, were tracheotomised and submitted to artifical respiration (40-50 insufflations of 3 ml/minute). Needles were implanted sub-cutaneously to record the electrocardiogram of the rats on the DII derivation signal and the products under test were administered intravenously. Five minutes after administering the product, the jugular vein of the rats was perfused with 10 μg/mn from 0.2 ml of an aconitine solution and the time of appearance of disturbances of the cardiac rhythm was noted. The results were expressed as percentage of extension of the time of appearance of the cardiac rhythm disturbances as compared with controls and as a function of the dose of the product tested.

T1 sequence (P41144 whole entry): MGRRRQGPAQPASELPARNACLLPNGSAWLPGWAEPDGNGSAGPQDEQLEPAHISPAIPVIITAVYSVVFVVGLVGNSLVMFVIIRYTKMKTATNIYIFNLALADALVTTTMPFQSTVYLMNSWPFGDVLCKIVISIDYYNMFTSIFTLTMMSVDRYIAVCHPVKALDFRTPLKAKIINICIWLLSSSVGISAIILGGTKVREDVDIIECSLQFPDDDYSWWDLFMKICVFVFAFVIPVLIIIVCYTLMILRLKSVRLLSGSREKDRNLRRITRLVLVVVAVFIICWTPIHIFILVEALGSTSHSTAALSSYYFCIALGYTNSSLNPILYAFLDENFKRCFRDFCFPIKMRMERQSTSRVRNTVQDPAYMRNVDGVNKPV

SMILES | DA50 or dose necessary to reduce the number of stretchings by 50% (male mice; 30 min) [mg/kg] | IC50 (K opiated receptor) [nM] | Percentage of variation of the urine volume [1] | Percentage of extension of the time of appearance of the cardiac rhythm disturbances (rat; dose 1 mg/kg intravenously) | Percentage of extension of the time of appearance of the cardiac rhythm disturbances (rat; dose 2.5 mg/kg intravenously) | ED50 (male mice; Mus musculus, po, 0.5 h, read-out: DA50 or dose necessary to reduce the number of stretchings by 50%) [mg/kg]
O=C(Cc1ccc(Cl)c(Cl)c1)N1CCCC2CCC(N3CCCC3)C21 (stereo not drawn) [Example 3, [4aRS (4aα, 7aβ)] (35) 1-[(3.4-dichlorophenyl)acetyl]octahydro-7-(1-pyrrolidinyl)-1H-1-pyrindine hydrochloride (isomer trans I).] | 5 | 9 | +57% |  |  | 
O=C(Cc1ccc(Cl)c(Cl)c1)N1CCC[C@@H]2CCCC[C@H](N3CCCC3)[C@@H]21 (relative stereo) [Example 4, [4a-α, 9-β, 9a-α] (±) decahydro-1-([3,4-dichlorophenyl)-acetyl]-9-(1-pyrrolidinyl)-1H-cyclohepta[b]pyridine hydrochloride] |  |  |  | +37% | +65% | 
O=C(Cc1ccc(Cl)c(Cl)c1)N1CCCC2CCC(N3CCCC3)C21 (mixture of isomers) [Example 1, [4aRS (4a-α, 7a-α)](±)1-[(3,4-dichlorophenyl)-acetyl]-octahydro-7-(1-pyrrolidinyl)-1H-1-pyrindine hydrochloride (isomer cis I)] |  | 4 | +85% | +26% | +35% | 2.5
